Reference: article doi:10.1101/2021.04.08.439011v1 (biorxiv, 2021)
Like-named read-outs stand apart in the source and are kept apart here.

Experiments:
[1] = biological target: RSK1(Kin.Dom.1-N-terminal) (Homo sapiens, UniProt Q15418); conditions: 0.1 µM; binder
[2] = biological target: RPS6KA4(Kin.Dom.1-N-terminal) (Homo sapiens, UniProt O75676); conditions: 0.1 µM; binder
[3] = biological target: RPS6KA4(Kin.Dom.2-C-terminal) (Homo sapiens, UniProt O75676); conditions: 0.1 µM; binder
[4] = biological target: TYK2(JH1domain-catalytic) (Homo sapiens, UniProt P29597); conditions: 0.1 µM; binder
HPK1 = HPK1 (Homo sapiens, UniProt Q92918); conditions: 0.1 µM; binder
MEK2 = MEK2 (Homo sapiens, UniProt P36507); conditions: 0.1 µM; binder
ASK1 = ASK1 (Homo sapiens, UniProt Q99683); conditions: 0.1 µM; binder
LCK = LCK (Homo sapiens, UniProt P06239); conditions: 0.1 µM; binder
RIOK1 = RIOK1 (Homo sapiens, UniProt Q9BRS2); conditions: 0.1 µM; binder
ABL1(H396P) = ABL1(H396P) (Homo sapiens, UniProt P00519, H396P); conditions: 0.1 µM, binder
KIT(V559D,T670I) = KIT(V559D,T670I) (Homo sapiens, UniProt P10721, T670I/V559D); conditions: 0.1 µM; binder
PCTK3 = PCTK3 (Homo sapiens, UniProt Q07002); conditions: 0.1 µM; binder
TSSK1B = TSSK1B (Homo sapiens, UniProt Q9BXA7); conditions: 0.1 µM; binder
MARK4 = MARK4 (Homo sapiens, UniProt Q96L34); conditions: 0.1 µM; binder
FLT3(D835Y) = FLT3(D835Y) (Homo sapiens, UniProt P36888, D835Y); conditions: 0.1 µM; binder
MAP4K3 = MAP4K3 (Homo sapiens, UniProt Q8IVH8); conditions: 0.1 µM; binder
FLT3(N841I) = FLT3(N841I) (Homo sapiens, UniProt P36888, N841I); conditions: 0.1 µM; binder
FGFR2 = FGFR2 (Homo sapiens, UniProt P21802); conditions: 0.1 µM; binder
GCN2(Kin.Dom.2,S808G) = GCN2(Kin.Dom.2,S808G) (Homo sapiens, UniProt Q9P2K8, S808G); conditions: 0.1 µM; binder
[5] = biological target: JAK3(JH1domain-catalytic) (Homo sapiens, UniProt P52333); conditions: 0.1 µM; binder
PFCDPK1 (P. falciparum) = PFCDPK1 (P. falciparum) (Plasmodium falciparum, UniProt P62344); conditions: 0.1 µM; binder
[6] = biological target: RSK3(Kin.Dom.2-C-terminal) (Homo sapiens, UniProt Q15349); conditions: 0.1 µM; binder
[7] = biological target: RSK4(Kin.Dom.1-N-terminal) (Homo sapiens, UniProt Q9UK32); conditions: 0.1 µM; binder
[8] = biological target: TYK2(JH2domain-pseudokinase) (Homo sapiens, UniProt P29597); conditions: 0.1 µM; binder
LTK = LTK (Homo sapiens, UniProt P29376); assay: biochemical; conditions: read-out: Percent Control
DYRK1B = DYRK1B (Homo sapiens, UniProt Q9Y463); assay: biochemical; conditions: read-out: Percent Control
STK33 = STK33 (Homo sapiens, UniProt Q9BYT3); assay: biochemical; conditions: read-out: Percent Control
PFPK5(P. falciparum) = PFPK5(P. falciparum) (Plasmodium falciparum, UniProt P61075); conditions: 1 µM; binder
PKNB (M. tuberculosis) = PKNB (M. tuberculosis) (Mycobacterium tuberculosis, UniProt P9WI81); conditions: 0.1 µM; binder

Sequence of RPS6KA4(Kin.Dom.1-N-terminal) (O75676 whole entry): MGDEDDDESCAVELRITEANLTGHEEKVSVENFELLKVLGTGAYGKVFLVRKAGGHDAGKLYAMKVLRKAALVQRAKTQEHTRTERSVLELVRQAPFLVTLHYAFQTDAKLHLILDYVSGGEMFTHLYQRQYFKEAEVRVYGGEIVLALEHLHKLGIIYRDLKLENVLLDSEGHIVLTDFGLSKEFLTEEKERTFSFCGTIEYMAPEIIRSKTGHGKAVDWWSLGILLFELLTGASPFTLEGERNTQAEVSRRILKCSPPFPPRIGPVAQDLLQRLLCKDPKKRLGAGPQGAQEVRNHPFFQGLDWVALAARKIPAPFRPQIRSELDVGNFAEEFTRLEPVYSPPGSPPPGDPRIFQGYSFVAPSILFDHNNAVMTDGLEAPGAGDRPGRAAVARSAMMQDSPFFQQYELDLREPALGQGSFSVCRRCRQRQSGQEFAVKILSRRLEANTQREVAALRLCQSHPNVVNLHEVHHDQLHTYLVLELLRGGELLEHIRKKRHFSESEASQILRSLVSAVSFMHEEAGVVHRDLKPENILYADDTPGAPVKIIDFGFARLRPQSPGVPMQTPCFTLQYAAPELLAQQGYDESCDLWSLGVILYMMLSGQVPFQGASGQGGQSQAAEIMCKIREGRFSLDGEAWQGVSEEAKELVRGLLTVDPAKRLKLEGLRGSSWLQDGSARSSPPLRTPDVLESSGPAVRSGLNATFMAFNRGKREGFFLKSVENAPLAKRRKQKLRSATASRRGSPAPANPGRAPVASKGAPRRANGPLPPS
Sequence of RPS6KA4(Kin.Dom.2-C-terminal) (O75676 whole entry): as above
Sequence of MEK2 (P36507 whole entry): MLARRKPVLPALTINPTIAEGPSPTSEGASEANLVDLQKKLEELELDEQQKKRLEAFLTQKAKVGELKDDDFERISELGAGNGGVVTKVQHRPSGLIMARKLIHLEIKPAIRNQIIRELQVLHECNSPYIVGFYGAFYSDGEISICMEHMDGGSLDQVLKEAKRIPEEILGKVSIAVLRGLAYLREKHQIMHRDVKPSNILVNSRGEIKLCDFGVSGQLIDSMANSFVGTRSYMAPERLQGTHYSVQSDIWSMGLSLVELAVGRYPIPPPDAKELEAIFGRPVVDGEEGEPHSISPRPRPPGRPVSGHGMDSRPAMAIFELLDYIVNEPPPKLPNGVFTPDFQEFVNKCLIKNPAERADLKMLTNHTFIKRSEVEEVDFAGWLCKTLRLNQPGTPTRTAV
Sequence of PCTK3 (Q07002 whole entry): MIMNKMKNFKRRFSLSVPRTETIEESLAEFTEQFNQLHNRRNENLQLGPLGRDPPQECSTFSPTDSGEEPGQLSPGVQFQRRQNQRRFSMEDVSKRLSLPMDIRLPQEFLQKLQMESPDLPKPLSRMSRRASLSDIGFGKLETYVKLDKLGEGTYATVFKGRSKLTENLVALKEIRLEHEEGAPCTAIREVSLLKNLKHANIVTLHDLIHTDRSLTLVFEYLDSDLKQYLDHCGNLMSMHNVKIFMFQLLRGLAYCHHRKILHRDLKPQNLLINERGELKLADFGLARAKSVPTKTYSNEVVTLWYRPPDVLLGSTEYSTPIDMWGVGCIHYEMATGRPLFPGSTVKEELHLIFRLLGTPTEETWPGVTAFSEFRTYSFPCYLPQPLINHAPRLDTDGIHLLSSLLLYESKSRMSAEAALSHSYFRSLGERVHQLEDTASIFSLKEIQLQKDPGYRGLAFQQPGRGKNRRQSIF
Sequence of STK33 (Q9BYT3 whole entry): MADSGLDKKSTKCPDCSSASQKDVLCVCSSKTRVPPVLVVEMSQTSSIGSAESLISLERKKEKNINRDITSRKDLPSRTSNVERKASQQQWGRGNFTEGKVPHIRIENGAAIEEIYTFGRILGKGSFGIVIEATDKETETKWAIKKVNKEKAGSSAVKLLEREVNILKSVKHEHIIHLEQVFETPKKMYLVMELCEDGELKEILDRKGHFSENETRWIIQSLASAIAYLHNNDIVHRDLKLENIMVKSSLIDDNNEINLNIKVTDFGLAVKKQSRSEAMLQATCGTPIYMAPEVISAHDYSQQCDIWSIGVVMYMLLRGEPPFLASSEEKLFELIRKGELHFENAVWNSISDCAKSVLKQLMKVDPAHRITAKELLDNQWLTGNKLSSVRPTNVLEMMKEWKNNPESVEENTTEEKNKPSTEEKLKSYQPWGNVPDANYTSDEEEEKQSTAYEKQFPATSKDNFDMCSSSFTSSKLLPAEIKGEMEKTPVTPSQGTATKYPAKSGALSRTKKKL
Sequence of GCN2(Kin.Dom.2,S808G) (Q9P2K8 whole entry S808G): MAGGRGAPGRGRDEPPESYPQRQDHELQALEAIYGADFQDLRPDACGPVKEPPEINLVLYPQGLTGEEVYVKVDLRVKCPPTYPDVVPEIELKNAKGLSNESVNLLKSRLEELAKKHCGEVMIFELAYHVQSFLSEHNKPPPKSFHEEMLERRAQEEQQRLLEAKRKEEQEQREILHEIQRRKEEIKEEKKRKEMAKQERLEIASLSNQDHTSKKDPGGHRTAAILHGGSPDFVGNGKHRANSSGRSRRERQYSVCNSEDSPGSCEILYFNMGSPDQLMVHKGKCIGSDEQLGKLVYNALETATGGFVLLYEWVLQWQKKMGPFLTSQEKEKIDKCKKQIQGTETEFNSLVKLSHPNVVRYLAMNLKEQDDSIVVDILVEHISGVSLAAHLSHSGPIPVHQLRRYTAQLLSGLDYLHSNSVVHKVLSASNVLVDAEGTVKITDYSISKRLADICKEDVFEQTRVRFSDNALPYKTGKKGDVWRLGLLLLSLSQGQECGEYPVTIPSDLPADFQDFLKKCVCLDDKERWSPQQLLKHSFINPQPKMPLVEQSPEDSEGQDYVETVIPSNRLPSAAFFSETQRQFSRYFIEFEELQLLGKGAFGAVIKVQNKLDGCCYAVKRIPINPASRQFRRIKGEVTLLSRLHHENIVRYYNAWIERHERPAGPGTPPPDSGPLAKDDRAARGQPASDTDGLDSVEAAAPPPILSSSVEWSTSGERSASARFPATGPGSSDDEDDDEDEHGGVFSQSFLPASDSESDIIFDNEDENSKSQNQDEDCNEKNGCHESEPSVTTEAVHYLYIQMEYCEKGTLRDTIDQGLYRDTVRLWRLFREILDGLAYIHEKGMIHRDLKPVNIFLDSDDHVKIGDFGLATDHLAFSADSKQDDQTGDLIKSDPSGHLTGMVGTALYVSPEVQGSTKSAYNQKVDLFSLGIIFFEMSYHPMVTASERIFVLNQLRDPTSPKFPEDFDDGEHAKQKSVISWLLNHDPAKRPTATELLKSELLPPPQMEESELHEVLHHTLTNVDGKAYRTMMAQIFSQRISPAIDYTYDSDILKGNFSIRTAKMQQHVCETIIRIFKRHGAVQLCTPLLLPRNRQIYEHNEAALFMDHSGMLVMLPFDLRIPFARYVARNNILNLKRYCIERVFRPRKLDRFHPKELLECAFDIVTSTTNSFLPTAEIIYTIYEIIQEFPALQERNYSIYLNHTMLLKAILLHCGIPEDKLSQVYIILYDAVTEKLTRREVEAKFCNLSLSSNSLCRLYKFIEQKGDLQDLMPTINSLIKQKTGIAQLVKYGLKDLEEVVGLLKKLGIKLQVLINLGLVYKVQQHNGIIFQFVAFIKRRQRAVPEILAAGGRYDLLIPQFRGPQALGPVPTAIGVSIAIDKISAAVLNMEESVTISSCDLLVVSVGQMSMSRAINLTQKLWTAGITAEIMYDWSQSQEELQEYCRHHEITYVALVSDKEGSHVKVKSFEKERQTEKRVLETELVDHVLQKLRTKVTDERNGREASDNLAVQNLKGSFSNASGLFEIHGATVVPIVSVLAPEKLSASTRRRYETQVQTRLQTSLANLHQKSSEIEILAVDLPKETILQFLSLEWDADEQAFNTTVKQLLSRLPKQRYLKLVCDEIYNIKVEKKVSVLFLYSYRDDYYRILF
Sequence of PFPK5(P. falciparum) (P61075 whole entry): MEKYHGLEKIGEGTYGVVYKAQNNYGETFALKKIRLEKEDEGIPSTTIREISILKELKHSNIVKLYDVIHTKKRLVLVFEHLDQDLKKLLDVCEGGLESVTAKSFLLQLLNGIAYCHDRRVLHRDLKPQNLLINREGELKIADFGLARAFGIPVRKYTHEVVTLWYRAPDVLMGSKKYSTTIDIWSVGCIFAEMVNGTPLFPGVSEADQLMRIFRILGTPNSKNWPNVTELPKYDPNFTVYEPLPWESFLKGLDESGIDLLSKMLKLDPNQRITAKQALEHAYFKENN
Sequence of RSK3(Kin.Dom.2-C-terminal) (Q15349 whole entry): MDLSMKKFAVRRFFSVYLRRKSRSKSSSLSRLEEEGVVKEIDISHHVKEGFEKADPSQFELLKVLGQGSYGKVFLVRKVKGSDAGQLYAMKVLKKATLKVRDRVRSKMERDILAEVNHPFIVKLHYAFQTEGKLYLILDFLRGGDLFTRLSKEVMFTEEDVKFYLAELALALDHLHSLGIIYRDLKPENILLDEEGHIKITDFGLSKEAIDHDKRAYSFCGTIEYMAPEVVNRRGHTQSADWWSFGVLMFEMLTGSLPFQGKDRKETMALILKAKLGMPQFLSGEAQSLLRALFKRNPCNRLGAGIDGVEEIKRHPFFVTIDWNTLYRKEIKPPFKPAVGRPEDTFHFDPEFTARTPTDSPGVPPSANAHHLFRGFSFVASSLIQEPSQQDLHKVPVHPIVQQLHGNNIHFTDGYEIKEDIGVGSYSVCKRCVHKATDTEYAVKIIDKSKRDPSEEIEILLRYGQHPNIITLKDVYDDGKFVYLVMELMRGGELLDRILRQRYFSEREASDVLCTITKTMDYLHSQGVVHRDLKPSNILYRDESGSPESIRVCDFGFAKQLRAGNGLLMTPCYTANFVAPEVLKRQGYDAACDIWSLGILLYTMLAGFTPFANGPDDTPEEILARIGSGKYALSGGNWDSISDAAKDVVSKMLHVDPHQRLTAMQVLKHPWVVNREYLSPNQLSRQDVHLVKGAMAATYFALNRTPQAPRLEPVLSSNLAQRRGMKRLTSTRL

## CNc1ncc2cc(-c3ccc(-c4cccc(C)n4)cc3Cl)c(=O)n(C[C@H]3OC[C@H](N)CO3)c2n1 [compound 6, G-5555]
[1]
  Percent Control: 79%
[2]
  Percent Control: 100%
[3]
  Percent Control: 100%
[4]
  Percent Control: 94%
HPK1
  Percent Control: 78%
MEK2
  Percent Control: 33%
ASK1
  Percent Control: 99%
LCK
  Percent Control: 58%
RIOK1
  Percent Control: 100%
ABL1(H396P); nonphosphorylated
  Percent Control: 79%
ABL1(H396P); phosphorylated
  Percent Control: 97%
KIT(V559D,T670I)
  Percent Control: 98%
PCTK3
  Percent Control: 100%
TSSK1B
  Percent Control: 98%
MARK4
  Percent Control: 100%
FLT3(D835Y)
  Percent Control: 94%
MAP4K3
  Percent Control: 85%
FLT3(N841I)
  Percent Control: 100%
FGFR2
  Percent Control: 100%
GCN2(Kin.Dom.2,S808G)
  Percent Control: 76%
[5]
  Percent Control: 100%
PFCDPK1 (P. falciparum)
  Percent Control: 9.1%
[6]
  Percent Control: 100%
[7]
  Percent Control: 97%
[8]
  Percent Control: 84%
LTK
  remaining activity at 1 µM: 4.1%
DYRK1B
  remaining activity at 1 µM: 49%
STK33
  remaining activity at 1 µM: 75%
PFPK5(P. falciparum)
  Percent Control: 100%
PKNB (M. tuberculosis)
  Percent Control: 100%
